Here are results for 6 compounds from publication PMC3826128 (Marine Drugs, 2013).

Broadly, the EC50 is the concentration needed to bring the measured effect to its halfway point. One may read the IC50 as the concentration needed to halve the response being measured.

Like-named read-outs stand apart in the source and are kept apart here.

For assay [1], the target named is T1, Leishmania donovani DNA topoisomerase IB enzyme (LdTopIB) (Leishmania donovani, UniProt A0A3Q8IHS4+Q8WQM6). Particulars: earlier work of the group; cited from earlier work.
For assay [2], the target named is T1, Leishmania donovani DNA topoisomerase IB enzyme (LdTopIB). Briefly: Inhibition of the relaxation activity of recombinant LdTopIB (plasmid DNA relaxation assay). The assay is classed as biochemical. Particulars: 30 min at 37 °C, 1.56–100 µM. Here is the method:
One unit of recombinant LdTopIB was assayed in a plasmid DNA relaxation assay for 30 min at 37 °C in the presence of 1.56–100 µM of either acids 1 or 2. Reaction products were resolved in agarose gel and subsequently visualized by ethidium bromide staining. The relative position of the negatively supercoiled DNA substrate is indicated by Sc, R is the relaxed DNA, whereas the ladder of relaxed DNA topoisomer bands is shown in between. Reactions were stopped with a mixture of 1% SDS and 6.1 µg of proteinase K. Lane 1 contains 0.5 µg of pSK plasmid DNA and lane 2, indicated by a 0, is 10% DMSO.
(§1) The LdTopIB and hTopIB inhibitory bioassays were performed as previously described. A brief description of the experimental procedure can be found as the header of Figure 1 and Figure 3.

The target of assay [3] is T2, human topoisomerase IB enzyme (hTopIB) (Homo sapiens, UniProt P11387).
T2 sequence (P11387 1-765): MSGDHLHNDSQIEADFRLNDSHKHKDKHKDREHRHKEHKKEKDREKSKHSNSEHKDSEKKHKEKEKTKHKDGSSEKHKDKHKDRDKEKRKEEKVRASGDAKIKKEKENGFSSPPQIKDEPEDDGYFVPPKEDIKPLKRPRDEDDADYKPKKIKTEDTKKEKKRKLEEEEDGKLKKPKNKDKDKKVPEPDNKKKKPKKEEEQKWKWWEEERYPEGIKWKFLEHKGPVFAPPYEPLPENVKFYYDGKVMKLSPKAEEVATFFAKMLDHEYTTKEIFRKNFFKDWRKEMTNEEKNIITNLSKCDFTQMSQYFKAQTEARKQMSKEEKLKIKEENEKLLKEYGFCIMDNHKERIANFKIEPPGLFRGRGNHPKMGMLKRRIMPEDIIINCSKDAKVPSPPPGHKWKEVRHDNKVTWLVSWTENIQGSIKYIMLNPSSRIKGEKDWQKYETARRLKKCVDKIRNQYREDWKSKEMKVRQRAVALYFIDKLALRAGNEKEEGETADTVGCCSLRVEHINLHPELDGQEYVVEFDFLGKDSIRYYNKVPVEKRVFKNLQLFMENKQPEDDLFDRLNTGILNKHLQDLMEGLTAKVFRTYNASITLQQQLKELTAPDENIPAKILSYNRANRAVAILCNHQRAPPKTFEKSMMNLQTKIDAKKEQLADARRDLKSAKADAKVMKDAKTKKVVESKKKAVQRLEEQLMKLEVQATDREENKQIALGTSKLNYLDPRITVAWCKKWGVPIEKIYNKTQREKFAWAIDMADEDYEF
Briefly: Inhibition of the relaxation activity of hTopIB (plasmid DNA relaxation assay). The format is biochemical. As to conditions: 30 min at 37 °C, 1–100 µM. On the procedure: One unit hTopIB was assayed in a plasmid DNA relaxation assay for 30 min at 37 °C in the presence of 1–100 µM of either acids 1 or 2. Reaction products were resolved in agarose gel and subsequently visualized by ethidium bromide staining. The relative position of the negatively supercoiled DNA substrate is indicated by Sc, R is the relaxed DNA, whereas the ladder of relaxed DNA topoisomer bands is shown in between. Reactions were stopped with a mixture of 1% SDS and 6.1 µg of proteinase K. Lane 1 contains 0.5 µg of pSK plasmid DNA and lane 2, indicated by a 0, is 10% DMSO.
as §1

The subject of assay [4] is LdTopIB CPT^R (LdTopIL^1−561/S175end). Briefly: Inhibition of CPT-resistant doubly truncated LdTopIB. The assay is classed as biochemical, Leishmania donovani. As to conditions: 100 µM, 4 min at 25 °C, judged by supercoiled DNA band. On the procedure:
Figure 4 Methoxylated fatty acids inhibit LdTopIB by a CPT-independent mechanism. […] Samples were incubated for 4 min at 25 °C, stopped with 1% SDS and digested for one extra hour at 37 °C in the presence of 1 mg/mL proteinase K. DNA was extracted with one volume of phenol-chloroform and samples were run on a 1% agarose gel containing ethidium bromide to a final concentration of 40 μg/mL in order to separate supercoiled and relaxed DNA. The nicked band corresponds to the stabilized cleavage complexes. The results are representative of three independent trials.

Assay [5] relates to L. infantum promastigotes. Briefly: Toxicity towards L. infantum promastigotes. The format is cell-based, Leishmania infantum. The source says: (§2) The experimental procedures employed to assess the toxicity of acids 1 and 2 towards L. infantum and L. donovani are the same as the ones previously described. CPT was used as the control drug.
Assay [6] has as its system Murine Macrophages BALB/c. Briefly: Toxicity towards murine macrophages. The format is cell-based. As to conditions: Mus musculus, Macrophage. The source says:
Murine macrophages were chosen as reference for this study since Leishmania spp. normally infects macrophages and in macrophages is where Leishmania promastigotes are transformed into Leishmania amastigotes. […] The experimental procedures employed to assess the toxicity of acids 1 and 2 towards L. infantum and L. donovani are the same as the ones previously described. CPT was used as the control drug.

Assay [7] has as its system L. donovani promastigotes. Briefly: Toxicity towards L. donovani promastigotes. As to conditions: Leishmania donovani. The format is cell-based.
Excerpt: as §2

[8] abbreviates: relaxation activity, read-out: LdTopIB EC50.

T1 sequence (A0A3Q8IHS4 entry or part of it): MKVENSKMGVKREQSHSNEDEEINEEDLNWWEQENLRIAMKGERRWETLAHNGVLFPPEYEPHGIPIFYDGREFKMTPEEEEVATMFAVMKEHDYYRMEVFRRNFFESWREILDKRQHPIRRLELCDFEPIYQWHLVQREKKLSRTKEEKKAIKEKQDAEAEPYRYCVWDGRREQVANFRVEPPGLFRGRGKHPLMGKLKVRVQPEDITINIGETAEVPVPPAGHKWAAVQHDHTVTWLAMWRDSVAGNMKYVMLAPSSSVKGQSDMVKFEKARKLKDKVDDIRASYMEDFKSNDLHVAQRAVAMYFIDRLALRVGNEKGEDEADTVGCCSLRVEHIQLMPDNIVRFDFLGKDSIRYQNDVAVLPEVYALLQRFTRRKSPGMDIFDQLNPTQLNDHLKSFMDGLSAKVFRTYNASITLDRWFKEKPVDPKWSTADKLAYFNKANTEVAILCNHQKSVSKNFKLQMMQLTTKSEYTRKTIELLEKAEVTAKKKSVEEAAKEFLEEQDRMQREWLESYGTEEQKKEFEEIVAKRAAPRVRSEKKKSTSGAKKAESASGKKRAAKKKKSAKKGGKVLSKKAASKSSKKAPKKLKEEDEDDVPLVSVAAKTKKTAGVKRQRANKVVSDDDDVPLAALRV
T1 sequence (Q8WQM6 entry or part of it): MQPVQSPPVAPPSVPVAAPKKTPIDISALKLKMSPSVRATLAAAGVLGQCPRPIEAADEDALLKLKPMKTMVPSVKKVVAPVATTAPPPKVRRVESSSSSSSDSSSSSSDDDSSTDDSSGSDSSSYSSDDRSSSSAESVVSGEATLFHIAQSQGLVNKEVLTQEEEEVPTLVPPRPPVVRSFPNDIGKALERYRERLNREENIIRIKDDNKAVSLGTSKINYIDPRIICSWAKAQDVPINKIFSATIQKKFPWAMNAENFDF

For the compound `CCCCCCCCCCC#CCCCC(OC)C(=O)O` (racemic) [(±)-2-OMe-6-heptadecynoic acid], the EC50 in assay [1] was 17 ± 1 µM.

Consider `CCCCCCCCCC/C=C\CCCC(OC)C(=O)O` (racemic) [(±)-2-methoxy-6Z-heptadecenoic acid], for which the half-maximal effective concentration (EC50) in assay [1] is 41 ± 6 µM.

In the case of `CCCCCCCCCC/C=C\CC/C=C\CCC(OC)C(=O)O` (racemic) [compound 1, (5Z,9Z)-(±)-2-methoxy-5,9-eicosadienoic acid], the EC50 in assay [2] (setting [8]) is 31 ± 2 µM; in assay [3], greater than 100 µM; in assay [5], 260 ± 20 µM; in assay [5] (Leishmania infantum), 240 to 260 µM. In addition, the “Inhibition of LdTopIB CPT^R” value in assay [4] is “completely inhibit”. Further, the IC50 in assay [6] was 110 ± 10 µM.

Take `CCCCCCCCCCC#CCCC#CCCC(OC)C(=O)O` (racemic) [compound 2, (±)-2-methoxy-5,9-eicosadiynoic acid]: the EC50 was 22 ± 1 µM in assay [2] (setting [8]), greater than 100 µM in assay [3], 240 ± 10 µM in assay [5] and 240 to 260 µM in assay [5] (Leishmania infantum). Further, the “Inhibition of LdTopIB CPT^R” value in assay [4] was “completely inhibit”. Also, the 50% inhibitory concentration (IC50) in assay [6] is 90 ± 20 µM.

Take `CCCCCCCCCCCCCC#CCCCC(OC)C(=O)O` (racemic) [compound 12, (±)-2-methoxy-6-icosynoic acid]: the EC50 in assay [2] (setting [8]) was 53 ± 3 µM; in assay [3], greater than 100 µM; in assay [7] (promastigotes), 100 µM. Besides, the IC50 in assay [7] (footnote a, in the column L. infantum EC50, read-out: IC50 against L. donovani promastigotes) was 100 ± 10 µM; in assay [6] it was greater than 100 µM.

For the compound `CC[C@@]1(O)C(=O)OCc2c1cc1n(c2=O)Cc2cc3ccccc3nc2-1` [CPT, Camptothecin, reference compound], the EC50 in assay [2] (LdTopIB EC50, relaxation activity) is 0.7 ± 0.1 µM; in assay [5] (Leishmania infantum), 1.1 ± 0.1 µM. The “Inhibition of LdTopIB CPT^R” value in assay [4] was “not able to inhibit”. The compound further returned an IC50 in assay [6] of 0.6 ± 0.1 µM.
